Measurements reported in PMC3935456 (Journal of biomolecular screening, 2011).

What was measured:
[1] = target: T1, LIM kinase 1 (LIMK1) (Homo sapiens, UniProt P53667); assay: apparent Km determination in luciferase ATP-depletion kinase assay with cofilin; format: biochemical
[2] = target: T1, LIM kinase 1 (LIMK1); assay: Kinase Glo luciferase ATP-depletion assay with recombinant cofilin, […] ATP; format: biochemical

T1 sequence (P53667 339-604 limits assumed): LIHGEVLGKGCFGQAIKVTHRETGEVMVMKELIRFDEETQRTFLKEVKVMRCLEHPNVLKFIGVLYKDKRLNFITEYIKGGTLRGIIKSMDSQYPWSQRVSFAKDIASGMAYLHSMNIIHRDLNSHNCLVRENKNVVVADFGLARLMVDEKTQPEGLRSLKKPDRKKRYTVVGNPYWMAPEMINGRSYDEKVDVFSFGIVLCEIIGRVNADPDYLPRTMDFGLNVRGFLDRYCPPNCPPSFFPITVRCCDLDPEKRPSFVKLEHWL

Km [1]	IC50 [2]	Structure (SMILES)
10 to 20 µM		Nc1ncnc2c1ncn2[C@@H]1O[C@H](COP(=O)(O)OP(=O)(O)OP(=O)(O)O)[C@@H](O)[C@H]1O [ATP]
	19 nM	COc1c(C=O)c(O)cc2c1C(=O)c1ccccc1C2=O [damnacanthal]
